From US8268999B2, “Tri-cyclic pyrazolopyridine kinase inhibitors” (Vertex Pharmaceuticals Incorporated, priority 2009, dated 2012)
pKi: −log10 of the molar value. Where “and” joins values, the source holds several entries; their conditions need not be identical. Equal entries are not always repeated.

How the values were obtained:
[1] = biological target: PI3Kα (Homo sapiens, UniProt P42336); assay: PI3K Inhibition Assay (33P-ATP, PI(4,5)P2 substrate), PI3Kα; type: biochemical; conditions: 2 nM final enzyme, 3 μM ATP, 30 μM PI(4,5)P2, 30 min at 25° C.; competitive tight binding Ki fit
PI3Kα, sequence (P42336 whole entry, species assumed, canonical isoform): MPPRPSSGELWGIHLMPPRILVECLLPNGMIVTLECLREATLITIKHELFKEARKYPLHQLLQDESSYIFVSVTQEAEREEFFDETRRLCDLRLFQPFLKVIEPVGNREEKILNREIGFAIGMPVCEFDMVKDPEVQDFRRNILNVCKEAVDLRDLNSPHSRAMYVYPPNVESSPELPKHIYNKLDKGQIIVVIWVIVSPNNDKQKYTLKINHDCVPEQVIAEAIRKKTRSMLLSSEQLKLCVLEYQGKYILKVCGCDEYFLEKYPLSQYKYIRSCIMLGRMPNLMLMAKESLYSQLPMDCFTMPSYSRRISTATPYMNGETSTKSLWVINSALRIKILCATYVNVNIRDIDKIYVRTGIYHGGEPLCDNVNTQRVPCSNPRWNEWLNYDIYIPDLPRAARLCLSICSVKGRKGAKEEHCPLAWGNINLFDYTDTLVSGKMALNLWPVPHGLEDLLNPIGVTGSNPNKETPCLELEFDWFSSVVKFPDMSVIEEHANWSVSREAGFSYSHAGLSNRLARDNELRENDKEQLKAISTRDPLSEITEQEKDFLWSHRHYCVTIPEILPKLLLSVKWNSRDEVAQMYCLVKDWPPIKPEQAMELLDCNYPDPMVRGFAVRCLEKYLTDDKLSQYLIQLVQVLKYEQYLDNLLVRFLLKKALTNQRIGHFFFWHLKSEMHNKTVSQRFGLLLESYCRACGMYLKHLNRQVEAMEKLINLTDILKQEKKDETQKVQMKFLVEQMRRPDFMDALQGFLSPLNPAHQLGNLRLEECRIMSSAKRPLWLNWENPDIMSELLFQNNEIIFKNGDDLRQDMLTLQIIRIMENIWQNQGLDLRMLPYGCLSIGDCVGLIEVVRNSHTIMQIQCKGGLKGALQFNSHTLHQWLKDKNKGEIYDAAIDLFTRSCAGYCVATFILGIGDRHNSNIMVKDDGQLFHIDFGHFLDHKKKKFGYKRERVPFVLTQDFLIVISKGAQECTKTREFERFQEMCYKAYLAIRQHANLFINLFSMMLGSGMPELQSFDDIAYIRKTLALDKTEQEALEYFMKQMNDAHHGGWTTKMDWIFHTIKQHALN
PI3Kα, sequence (P27986 whole entry partner, species assumed, canonical isoform): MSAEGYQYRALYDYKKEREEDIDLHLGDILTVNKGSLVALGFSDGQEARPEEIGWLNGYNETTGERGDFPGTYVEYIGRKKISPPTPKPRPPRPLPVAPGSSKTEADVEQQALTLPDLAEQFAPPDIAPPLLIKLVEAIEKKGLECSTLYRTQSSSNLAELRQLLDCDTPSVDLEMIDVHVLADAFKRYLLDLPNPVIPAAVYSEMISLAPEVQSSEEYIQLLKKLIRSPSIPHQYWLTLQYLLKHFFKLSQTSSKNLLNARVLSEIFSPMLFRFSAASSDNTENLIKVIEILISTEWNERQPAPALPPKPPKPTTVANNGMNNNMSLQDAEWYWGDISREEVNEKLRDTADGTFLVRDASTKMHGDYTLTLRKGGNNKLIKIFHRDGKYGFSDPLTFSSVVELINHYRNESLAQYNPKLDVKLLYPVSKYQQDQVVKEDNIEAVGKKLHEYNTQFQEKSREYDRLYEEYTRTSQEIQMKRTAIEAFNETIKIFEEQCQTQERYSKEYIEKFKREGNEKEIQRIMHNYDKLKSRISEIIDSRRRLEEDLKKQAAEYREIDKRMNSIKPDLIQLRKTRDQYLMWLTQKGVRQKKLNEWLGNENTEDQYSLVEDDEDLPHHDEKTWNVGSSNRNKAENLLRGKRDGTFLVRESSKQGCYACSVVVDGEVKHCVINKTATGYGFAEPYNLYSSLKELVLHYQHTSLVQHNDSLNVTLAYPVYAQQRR
Description: (§1) Using a Biomek FX from Beckman Coulter, 1.5 μL of each of ten 2.5-fold serial dilutions of a compound of the invention in 100% DMSO was added to an individual well (hereafter, “test well”) in a 96 well polystyrene plate [Corning, Costar Item No. 3697]. One test well also contained 1.5 μL of DMSO with no compound. […] Using a Titertek Multidrop, 50 μL of Reaction Mix [100 mM HEPES pH 7.5, 50 mM NaCl, 10 mM DTT, 0.2 mg/mL BSA, 60 μM phosphatidylinositol(4,5)-bisphosphate diC16 (PI(4,5)P2; Avanti Polar Lipids, Cat. No. 840046P) and PI3K isoform of interest (see Table 3 for isoform concentrations)] was added to each well. To initiate the reaction, 50 μL of ATP Mix [20 mM MgCl2, 6 μM ATP (100 μCi/μmole ^33P-ATP)] was added each well, followed by incubating the wells for 30 min. at 25° C. Final concentrations in each well were 50 mM HEPES 7.5, 10 mM MgCl2, 25 mM NaCl, 5 mM DTT, 0.1 mg/mL BSA, 30 μM PI(4,5)P2, 3 μM ATP, and the PI3K isoform of interest (see Table 3). Final compound concentrations in each well ranged from 10 μM to 1 nM.
(§2) After incubation, the reactions in each well were quenched by addition of 50 μL of stop solution [30% TCA/Water, 10 mM ATP]. […] 50 μL of scintillation fluid was added to each well and the plate read on a Perkin-Elmer TopCount™ NXT liquid scintillation counter to obtain ^33P-counts representing inhibition values. […]

[2] = biological target: PI3Kγ (Homo sapiens, UniProt P48736); assay: PI3K Inhibition Assay (33P-ATP, PI(4,5)P2 substrate), PI3Kγ; type: biochemical; conditions: 2 nM final enzyme, 3 μM ATP, 30 μM PI(4,5)P2, 30 min at 25° C.; competitive tight binding Ki fit
PI3Kγ, sequence (P48736 whole entry, species assumed): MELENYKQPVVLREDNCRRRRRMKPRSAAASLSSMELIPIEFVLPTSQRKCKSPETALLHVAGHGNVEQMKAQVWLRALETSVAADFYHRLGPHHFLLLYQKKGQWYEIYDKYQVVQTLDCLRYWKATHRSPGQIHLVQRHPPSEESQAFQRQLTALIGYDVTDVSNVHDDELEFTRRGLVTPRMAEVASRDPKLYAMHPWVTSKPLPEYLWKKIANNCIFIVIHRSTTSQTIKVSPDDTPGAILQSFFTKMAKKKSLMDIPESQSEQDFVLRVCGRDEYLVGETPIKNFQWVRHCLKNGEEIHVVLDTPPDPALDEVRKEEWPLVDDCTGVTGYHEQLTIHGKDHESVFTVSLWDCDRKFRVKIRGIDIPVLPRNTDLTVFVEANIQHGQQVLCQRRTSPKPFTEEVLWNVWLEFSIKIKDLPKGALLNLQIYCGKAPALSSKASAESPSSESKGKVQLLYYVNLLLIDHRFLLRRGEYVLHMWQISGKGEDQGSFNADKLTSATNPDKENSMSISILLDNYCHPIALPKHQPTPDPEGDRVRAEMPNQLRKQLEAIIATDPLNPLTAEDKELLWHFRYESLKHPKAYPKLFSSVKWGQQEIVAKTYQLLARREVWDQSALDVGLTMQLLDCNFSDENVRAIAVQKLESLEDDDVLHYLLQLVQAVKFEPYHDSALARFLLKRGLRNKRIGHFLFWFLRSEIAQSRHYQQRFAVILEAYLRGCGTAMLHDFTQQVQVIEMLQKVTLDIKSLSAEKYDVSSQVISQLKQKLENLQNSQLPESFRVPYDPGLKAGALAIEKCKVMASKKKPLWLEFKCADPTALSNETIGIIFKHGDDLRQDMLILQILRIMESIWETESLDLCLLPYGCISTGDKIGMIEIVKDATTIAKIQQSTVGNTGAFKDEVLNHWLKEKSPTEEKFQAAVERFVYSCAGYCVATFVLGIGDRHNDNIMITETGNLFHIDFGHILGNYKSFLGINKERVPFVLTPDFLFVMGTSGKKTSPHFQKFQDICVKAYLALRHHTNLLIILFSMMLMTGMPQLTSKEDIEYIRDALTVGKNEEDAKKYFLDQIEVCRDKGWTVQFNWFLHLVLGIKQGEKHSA
Description: as §1, §2

## COc1cc(-c2ccc3nc(Nc4cnccn4)sc3n2)cnc1OC [Compound 37]
[1]
  pKi: 8.70 and > 7.00

## CCN(CC)C(=O)c1cccc(Nc2nc3ccc(-c4cncc(OC)c4)cc3s2)n1 [Compound 110]
[2]
  pKi: 8.52 and > 7.00
